Measured values from article PMC8205039, “Synthesis and biological evaluation of 4-phenoxy-phenyl isoxazoles as novel acetyl-CoA carboxylase inhibitors” (Journal of Enzyme Inhibition and Medicinal Chemistry, 2021).

Assays:
hACC1 = biological target: T1, hACC1 (Homo sapiens, UniProt Q13085); assay: ACC inhibitory assay (ADP-Glo luminescent ADP detection); type: biochemical; conditions: for inhibition at 0.1 µM: hACC1, 0.1 μM, read-out: IRs (%) 0.1 μM; for inhibition at 0.1 µM / inhibition at 5 µM: mean of two independent experiments (Table 2); for inhibition at 5 µM: hACC1, 5 μM, read-out: IRs (%) 5 μM; for IC50: hACC1, mean ± SD; for hACC1 IRs (%): at 5 μM, HTVS candidates (Table 1)
T1 construct: purchased BPS Biosciences 50200
Description: The hACC1 inhibitory activity of target compounds was evaluated using the ADP-Glo^TM kinase assay according to our previous report. In brief, 4.5 µL of working solution containing recombinant ACC1 (BPS Biosciences, 50200) and 0.5 µL of diluted compound solution were added to a 384-well Optiplate plate (Perkin Elmer, 6007290, PerkinElmer, Waltham, MA, USA), and incubated at room temperature for 15 min. Then, 5 µL of substrate mixture was added to the 384-well plate to start the reaction. After incubating for 60 min at room temperature, 10 µL of ADP-Glo reagents were added to the 384-well plate, and incubated for another 40 min to deplete the remaining ATP. Finally, 20 µL of kinase detection reagents were added to the plate and incubated for 40 min to convert ADP to ATP. The luminescent signal of ATP was determined using an Envision multifunction reader (Perkin Elmer, 2104–0010, PerkinElmer, Waltham, MA, USA). The IC50 values were calculated using GraphPad Prism 5 software (GraphPad Software, La Jolla, CA, USA).

A549 cells [1] = assay: MTT assay, A549; type: cell-based; conditions: Homo sapiens, 72 h, mean ± SD (n = 3)
Description: (§1) The cytotoxicity of target compounds was assessed by MTT assay. Briefly, cells were seeded in 96-well plates at a density of 2500–3000 per well and incubated for 24 h in a CO2 incubator. Then, the cells were treated with candidate compounds at seven different concentrations for 72 h. At the end of treatment, the MTT reagent (5 mg/mL) was added to determine the cell viability. After 4 h of incubation, the resulting medium was removed, and 100 µL of DMSO was added to dissolve the formed formazan. Finally, the absorbance at 550 nm was measured by a microplate reader (Varioskan LUX, […]), with the IC50 values calculated using GraphPad Prism 5 software (GraphPad Software, La Jolla, CA, USA).

HepG2 cells [2] = assay: MTT assay, HepG2; type: cell-based; conditions: Homo sapiens, 72 h, mean ± SD (n = 3)
Description: as §1

MDA-MB-231 cells [3] = assay: MTT assay, MDA-MB-231; type: cell-based; conditions: Homo sapiens, 72 h, mean ± SD (n = 3)
Description: as §1

[4] = Cell viability of non-cancerous HUVEC; type: cell-based, human; conditions: human, HUVEC cells (non-cancerous)
Description: (§2) To investigate the selectivity of the synthesised compounds towards cancer cells, the non-cancerous HUVEC cell line was selected for testing.
as §1

HUVEC = assay: Cell viability of non-cancerous HUVEC; type: cell-based, human; conditions: 10 μM
Description: as §2, §1

[5] = test system: intracellular malonyl-CoA levels in MDA-MB-231 cells; assay: Measurement of malonyl-CoA levels (Elisa); type: cell-based, human; conditions: maximum test concentration, 48 h
Description: MDA-MB-231 cells were seeded on 6-well plates and treated with various concentrations of 6g and 6l for 48 h. Cells were collected, washed with PBS, and lysed with 1% Triton X-100. The lysates were centrifuged at 4 °C for 15 min. The malonyl-CoA levels were determined using Elisa assay kits (Ruixin Biotech, Beijing, China).

MDA-MB-231 cells [6] = assay: Cell-cycle assay (PI flow cytometry); type: cell-based, human; conditions: 48 h
Description: MDA-MB-231 cells were seeded on 6-well plates (3 × 10^4 cells/well) and incubated with indicated concentrations of 6g (0.75, 1.5, and 3 µM) and 6l (0.1, 0.2, and 0.4 µM) for 48 h in a 5% CO2 incubator. Then, the cells were collected by trypsinization and centrifugation, followed by fixing in 70% pre-cooled ethanol overnight. Finally, the cells were stained with PI/RNase A according to the manual and measured by flow cytometer (Facs Canto II, Becton Dickinson, San Jose, CA’, USA)[35].

MDA-MB-231 cells [7] = assay: Cell apoptosis assay (Annexin V-FITC/PI flow cytometry); type: cell-based, human; conditions: 48 h
Description: MDA-MB-231 cells were plated on 6-well plates (3 × 10^4 cells/well) and incubated with various concentrations of 6g (0.75, 1.5, and 3 µM) and 6l (0.1, 0.2, and 0.4 µM) for 48 h. Then, cells were harvested by trypsinization and centrifugation, followed by staining with annexin-V-FITC in binding buffer for 15 min protected from light. Subsequently, the cells were stained with PI, and the proportion of apoptotic cells was measured by flow cytometer (Facs Canto II, Becton Dickinson, San Jose, CA, USA)[36].

A549 cells [8] = assay: MTT assay, A549; type: cell-based; conditions: Homo sapiens, single concentration of 10 µM (Figure S2), read-out: inhibitory rate, A549
HepG2 cells [9] = assay: MTT assay, HepG2; type: cell-based; conditions: Homo sapiens, single concentration of 10 µM (Figure S2), read-out: inhibitory rate, HepG2
MDA-MB-231 cells [10] = assay: MTT assay, MDA-MB-231; type: cell-based; conditions: Homo sapiens, single concentration of 10 µM (Figure S2), read-out: inhibitory rate, MDA-MB-231

| SMILES | inhibition at 0.1 µM (hACC1) [%] | inhibition at 5 µM (hACC1) [%] | IC50 (hACC1) [nM] | IC50 (A549 cells [1]) [µM] | IC50 (HepG2 cells [2]) [µM] | IC50 (MDA-MB-231 cells [3]) [µM] | viability at 72 h, 10 µM [4] [%] | IRs towards HUVEC (HUVEC) | melting point [°C] | inhibition at 10 µM (A549 cells [8]) [%] | inhibition at 10 µM (HepG2 cells [9]) [%] | inhibition at 10 µM (MDA-MB-231 cells [10]) [%] | also measured |
| --- | --- | --- | --- | --- | --- | --- | --- | --- | --- | --- | --- | --- | --- |
| CCCOc1ccc(Oc2ccc(-c3cc(C(C)NC(C)=O)on3)cc2)cc1 (stereo not drawn) [Compound 6e, N-(1-(3-(4-(4-Propoxyphenoxy)phenyl)isoxazol-5-yl)ethyl)acetamide] | 31.1 | > 60 | 438 ± 16.3 | 2.66 ± 0.47 | 3.48 ± 0.74 | 1.53 ± 0.38 | 83.7 ± 4.4 | less than 20% | 118.5 to 119.5 | – | – | – | – |
| CC(NC(=O)c1ccccc1)c1cc(-c2ccc(Oc3ccccc3)cc2)no1 (stereo not drawn) [Compound 6k, N-(1-(3-(4-Phenoxyphenyl)isoxazol-5-yl)ethyl)benzamide] | 28.1 | > 60 | 626 ± 41.6 | 2.61 ± 0.34 | 3.23 ± 0.89 | 0.57 ± 0.18 | 80 ± 2.47 | less than 20% | – | – | – | – | – |
| CC(NC(=O)Cc1ccccc1)c1cc(-c2ccc(Oc3ccccc3)cc2)no1 (stereo not drawn) [Compound 6l, N-(1-(3-(4-Phenoxyphenyl)isoxazol-5-yl)ethyl)-2-phenylacetamide] | 37.9 | – | 279 ± 13.1 | 0.22 ± 0.07 | 0.26 ± 0.02 | 0.21 ± 0.01 | 89.5 ± 3.21 | less than 20% | 164.5 to 165.5 | > 80 | > 80 | > 80 | reduction of intracellular malonyl-CoA levels compared to the control group [5]: ~25.85%; cells at G0/G1 phase (MDA-MB-231 cells [6]; 0.1 μM): 71.79%; cells at G2/M phase (MDA-MB-231 cells [6]; 0.1 μM): 12.01%; cells at S phase (MDA-MB-231 cells [6]; 0.1 μM): 16.20%; cells at G0/G1 phase (MDA-MB-231 cells [6]; 0.2 μM): 76.79%; cells at G2/M phase (MDA-MB-231 cells [6]; 0.2 μM): 8.79%; cells at S phase (MDA-MB-231 cells [6]; 0.2 μM): 14.42%; cells at G0/G1 phase (MDA-MB-231 cells [6]; 0.4 μM): 81.93%; cells at G2/M phase (MDA-MB-231 cells [6]; 0.4 μM): 5.32%; cells at S phase (MDA-MB-231 cells [6]; 0.4 μM): 12.76%; Q2 (upper right quadrant, late apoptotic cells) (MDA-MB-231 cells [7]; 0.4 μM): 17.50%; Q3 (bottom right quadrant, early apoptotic cells) (MDA-MB-231 cells [7]; 0.4 μM): 12.20% |
| CC(NC(=O)Nc1ccccc1)c1cc(-c2ccc(Oc3ccccc3)cc2)no1 (stereo not drawn) [Compound 6p, 1-(1-(3-(4-Phenoxyphenyl)isoxazol-5-yl)ethyl)-3-phenylurea] | 21.5 | > 60 | 1050 ± 180 | 5.3 ± 0.46 | 1.8 ± 0.62 | 0.84 ± 0.08 | 85.6 ± 7.35 | less than 20% | 195.5 to 196.5 | – | – | – | – |
| CC(=O)NC(C)c1cc(-c2ccc(Oc3ccc(OCC4CC4)cc3)cc2)no1 (stereo not drawn) [Compound 6g, N-(1-(3-(4-(4-(Cyclopropylmethoxy)phenoxy)phenyl)isoxazol-5-yl)ethyl)acetamide] | 51.4 | – | 99.8 ± 3.7 | 1.1 ± 0.12 | 1.73 ± 0.55 | 1.5 ± 0.58 | 87.3 ± 6.19 | less than 20% | 131.5 to 132.5 | > 80 | > 80 | > 80 | reduction of intracellular malonyl-CoA levels compared to the control group [5]: ~23.59%; cells at G0/G1 phase (MDA-MB-231 cells [6]; 0.75 μM): 69.37%; cells at G2/M phase (MDA-MB-231 cells [6]; 0.75 μM): 12.01%; cells at S phase (MDA-MB-231 cells [6]; 0.75 μM): 18.62%; cells at G0/G1 phase (MDA-MB-231 cells [6]; 1.5 μM): 73.66%; cells at G2/M phase (MDA-MB-231 cells [6]; 1.5 μM): 10.51%; cells at S phase (MDA-MB-231 cells [6]; 1.5 μM): 15.83%; cells at G0/G1 phase (MDA-MB-231 cells [6]; 3 μM): 79.97%; cells at G2/M phase (MDA-MB-231 cells [6]; 3 μM): 9.96%; cells at S phase (MDA-MB-231 cells [6]; 3 μM): 10.08%; total percentage of the early and late apoptotic cells (MDA-MB-231 cells [7]; 0.75 μM): 8.34%; total percentage of the early and late apoptotic cells (MDA-MB-231 cells [7]; 1.5 μM): 13.83%; total percentage of the early and late apoptotic cells (MDA-MB-231 cells [7]; 3 μM): 20.25% |
| CC(NC(=O)NCc1ccccc1)c1cc(-c2ccc(Oc3ccccc3)cc2)no1 (stereo not drawn) [Compound 6q, 1-Benzyl-3-(1-(3-(4-phenoxyphenyl)isoxazol-5-yl)ethyl)urea] | 28.3 | > 60 | 711 ± 52.6 | 5.73 ± 0.11 | 2.47 ± 0.5 | 0.89 ± 0.26 | 84.9 ± 3.98 | less than 20% | 161.5 to 162.5 | – | – | – | – |
| CCC(=O)NC(C)c1cc(-c2ccc(Oc3ccccc3)cc2)no1 (stereo not drawn) [Compound 6i, N-(1-(3-(4-Phenoxyphenyl)isoxazol-5-yl)ethyl)propionamide] | 18.5 | 51.8 | – | 6.02 ± 0.63 | 4.21 ± 0.53 | 2.97 ± 1.49 | 70.33 ± 0.25 | – | 129.5 to 130.5 | – | – | – | – |
| CC(NC(=O)C1CC1)c1cc(-c2ccc(Oc3ccccc3)cc2)no1 (stereo not drawn) [Compound 6j, N-(1-(3-(4-Phenoxyphenyl)isoxazol-5-yl)ethyl)cyclopropanecarboxamide] | 20.8 | 58.4 | – | 2.66 ± 0.47 | 3.48 ± 0.74 | 1.13 ± 0.38 | 59.5 ± 0.95 | – | 168.5 to 169.5 | – | – | – | – |
| CC(=O)NC(C)c1cc(-c2ccc(Oc3ccc(OCc4ccccc4)cc3)cc2)no1 (stereo not drawn) [Compound 6a, N-(1-(3-(4-(4-(Benzyloxy)phenoxy)phenyl)isoxazol-5-yl)ethyl)acetamide] | 18.1 | 54.9 | – | 1.4 ± 0.22 | 1.91 ± 0.66 | 1.57 ± 0.09 | 45.8 ± 1.16 | – | 152.5 to 153.5 | > 80 | > 80 | > 80 | hACC1 IRs (%) (hACC1): 57%; hACC1 IRs (%) (hACC1; listed as D098-1432 (6a)): 57.39% |
